Experimental data as given in patent US20250163036A1, “DIPEPTIDYL PEPTIDASE 1 INHIBITOR POLYMORPH, PREPARATION METHOD AND USE THEREFOR” (HAISCO PHARMACEUTICALS PTE. LTD., priority 2022, published 2025).

Assays:
[1] = Solid stability without protection (XRPD, UPLC); assay type: physicochemical
Experimental: For the compounds used in this experiment, the crystal form B was obtained from Example 3, and the crystal form C was obtained from Example 5
The crystal forms B and C were placed at 25° C./60% RH and 40° C./75% RH without any protection, and then the physical and chemical stabilities thereof were tested by XRPD and UPLC, respectively.

[2] = Hygroscopicity by dynamic vapor sorption (DVS); assay type: physicochemical; conditions: 25° C./80% RH
Experimental: The hygroscopicity of the crystal forms B and C was evaluated by a dynamic vapor sorption (DVS) instrument. The test collected the percentage change in the mass of the samples when the humidity changed (60% RH-95% RH-0% RH-95% RH or 0% RH-95% RH-0% RH) at a constant temperature of 25° C., wherein for the crystal form C, the test started at ambient humidity (about 60% RH), and for the crystal form B, the test started at 0% relative humidity (0% RH). The test results are shown in FIGS. 12 and 13, respectively.

[3] = Variable-temperature / heating XRPD test; assay type: physicochemical
Experimental: (initial temperature). […] In order to study the TGA weight loss of the crystal form B, a variable-temperature XRPD test was performed. […] (some diffraction peaks shifted at 120° C., and it is speculated that the shift may be caused by lattice expansion at high temperature). Therefore, it is speculated that the free base crystal form B is an anhydrous crystal form.
(peak temperatures). The sample was heated to 120° C. and cooled to room temperature, and then an XRPD test was performed. […] Based on the fact of crystal transformation of the sample upon heating in combination with the stepwise weight loss of the TGA, it is speculated that the crystal form C is a monohydrate.

[4] = Pharmacokinetic test in rats; assay type: in vivo, SD rats; conditions: rat, intragastric administration 3 mg/kg
Experimental: 1.1 Experimental animals: male SD rats, about 220 g, 6-8 weeks old, 6 rats/compound. Purchased from Chengdu Ddossy Experimental Animals Co., Ltd.
1.2 Experimental design: on the day of the experiment, 6 SD rats were randomly grouped according to their body weights. The animals were fasted with water available for 12 to 14 h one day before the administration and were fed 4 h after the administration.
Vehicle for intravenous administration: 5% DMA+5% Solutol+90% Saline; vehicle for intragastric administration: 0.5% MC; control compound INS1007, namely compound 2 in patent WO 2015110826A1, was prepared with reference to the method of the patent.
Before and after the administration, 0.1 ml of blood was taken from the orbit of the animals under isoflurane anesthesia and placed in an EDTAK2 centrifuge tube. The blood was centrifuged at 5000 rpm and 4° C. for 10 min to collect the plasma. Blood sampling time points for the intravenous administration group: 0, 5 min, 15 min, 30 min, 1 h, 2 h, 4 h, 6 h, 8 h, and 24 h; and blood sampling time points for the intragastric administration group: 0, 5 min, 15 min, 30 min, 1 h, 2 h, 4 h, 6 h, 8 h, and 24 h. Before analysis and detection, all samples were stored at −80° C.

[5] = Stability, long-term experiment 2; assay type: physicochemical; conditions: 30° C.±2° C., 65% RH±5% RH
Experimental: (§1) The compounds used in this experiment were obtained from Example 4. Examination conditions: 30° C.±2° C., 65% RH±5% RH. Packaging: the inner packaging material is a double-layer medicinal low-density polyethylene bag, and the outer packaging material is a polyester/aluminum/polyethylene medicinal composite bag. In particular, the analysis method of purity is as follows: [table]

[6] = Stability, long-term experiment 1; assay type: physicochemical; conditions: 25° C.±2° C., 60% RH±5% RH
Experimental: as §1, with “25°” for “30°”, “60%” for “65%”

[7] = Stability, accelerated experiment; assay type: physicochemical; conditions: 40° C.±2° C., 75% RH±5% RH
Experimental: as §1, with “40°” for “30°”, “75%” for “65%”

[8] = Stability, long-term experiment 3; assay type: physicochemical; conditions: 2° C.-8° C.
Experimental: as §1, with “2° C.-8° C.” for “30° C.±2° C., 65% RH±5% RH.”

Cn1c(=O)oc2ccc(-c3ccc(C[C@@H](C#N)NC(=O)[C@@H]4CNCCCO4)c(F)c3)cc21 [Crystal form C]
Crystal form change ([1]; 25° C./60% RH, 1 week): No | Purity ([1]; 25° C./60% RH, 1 week): 99.70 | Crystal form change ([1]; 40° C./75% RH, 1 week): No | Purity ([1]; 40° C./75% RH, 1 week): 99.71 | Purity ([1]; initial value): 99.87 | Moisture sorption [2]: 0.97% | Crystal form change upon heating (XRPD) ([3]; heated to 120° C. and cooled to room temperature): transformed into the crystal form B

Cn1c(=O)oc2ccc(-c3ccc(C[C@@H](C#N)NC(=O)[C@@H]4CNCCCO4)c(F)c3)cc21 [Compound I, (S)—N—((S)-1-cyano-2-(2-fluoro-4-(3-methyl-2-oxo-2,3-dihydrobenzo[d]oxazol-5-yl)phenyl)ethyl)-1,4-oxazepane-2-carboxamide]
F [4]: >100%

Cn1c(=O)oc2ccc(-c3ccc(C[C@@H](C#N)NC(=O)[C@@H]4CNCCCO4)cc3)cc21 [INS1007, reference compound]
F [4]: 88.1%

Cn1c(=O)oc2ccc(-c3ccc(C[C@@H](C#N)NC(=O)[C@@H]4CNCCCO4)c(F)c3)cc21 [Crystal form B]
Content ([5]; month 0): 100.5% | Crystal form ([5]; month 0): form B | Moisture ([5]; month 0): 0.2% | Purity ([5]; month 0): 99.93% | Content ([5]; month 3): 100.6% | Crystal form ([5]; month 3): form B | Moisture ([5]; month 3): 0.3% | Purity ([5]; month 3): 99.87% | Content ([5]; month 6): 101.6% | Crystal form ([5]; month 6): form B | Moisture ([5]; month 6): 0.2% | Purity ([5]; month 6): 99.90% | Content ([5]; month 9): 100.7% | Crystal form ([5]; month 9): form B | Moisture ([5]; month 9): 0.1% | Purity ([5]; month 9): 99.90% | Content ([5]; month 12): 99.2% | Crystal form ([5]; month 12): form B | Moisture ([5]; month 12): 0.2% | Purity ([5]; month 12): 99.89% | Crystal form change ([1]; 25° C./60% RH, 1 month): No | Purity ([1]; 25° C./60% RH, 1 month): 99.76 | Crystal form change ([1]; 25° C./60% RH, 1 week): No | Purity ([1]; 25° C./60% RH, 1 week): 99.74 | Purity ([1]; 25° C./60% RH, 3 weeks): 99.74 | Crystal form change ([1]; 40° C./75% RH, 1 month): No | Purity ([1]; 40° C./75% RH, 1 month): 99.63 | Crystal form change ([1]; 40° C./75% RH, 1 week): No | Purity ([1]; 40° C./75% RH, 1 week): 99.65 | Purity ([1]; 40° C./75% RH, 3 weeks): 99.57 | Purity ([1]; initial value): 99.86 | Content ([6]; month 0): 100.5% | Crystal form ([6]; month 0): form B | Moisture ([6]; month 0): 0.2% | Purity ([6]; month 0): 99.93% | Content ([6]; month 3): 100.6% | Crystal form ([6]; month 3): form B | Moisture ([6]; month 3): 0.3% | Purity ([6]; month 3): 99.87% | Content ([6]; month 6): 100.7% | Crystal form ([6]; month 6): form B | Moisture ([6]; month 6): 0.2% | Purity ([6]; month 6): 99.90% | Content ([6]; month 9): 101.6% | Crystal form ([6]; month 9): form B | Moisture ([6]; month 9): 0.1% | Purity ([6]; month 9): 99.89% | Content ([6]; month 12): 99.5% | Crystal form ([6]; month 12): form B | Moisture ([6]; month 12): 0.2% | Purity ([6]; month 12): 99.88% | Moisture sorption [2]: 0.19% | Content ([7]; month 0): 100.5% | Crystal form ([7]; month 0): form B | Moisture ([7]; month 0): 0.2% | Purity ([7]; month 0): 99.93% | Content ([7]; month 1): 100.4% | Crystal form ([7]; month 1): form B | Moisture ([7]; month 1): 0.3% | Purity ([7]; month 1): 99.87% | Content ([7]; month 2): 101.1% | Crystal form ([7]; month 2): form B | Moisture ([7]; month 2): 0.2% | Purity ([7]; month 2): 99.88% | Content ([7]; month 3): 100.1% | Crystal form ([7]; month 3): form B | Moisture ([7]; month 3): 0.2% | Purity ([7]; month 3): 99.87% | Content ([7]; month 6): 101.3% | Crystal form ([7]; month 6): form B | Moisture ([7]; month 6): 0.2% | Purity ([7]; month 6): 99.88% | Crystal form change in variable-temperature XRPD ([3]; purged with nitrogen for 20 minutes, heated to 120° C., or cooled to 30° C.): did not change | Content ([8]; month 0): 100.5% | Crystal form ([8]; month 0): form B | Moisture ([8]; month 0): 0.2% | Purity ([8]; month 0): 99.93% | Content ([8]; month 3): 100.5% | Crystal form ([8]; month 3): form B | Moisture ([8]; month 3): 0.3% | Purity ([8]; month 3): 99.87% | Content ([8]; month 6): 100.0% | Crystal form ([8]; month 6): form B | Moisture ([8]; month 6): 0.3% | Purity ([8]; month 6): 99.89% | Content ([8]; month 9): 101.6% | Crystal form ([8]; month 9): form B | Moisture ([8]; month 9): 0.2% | Purity ([8]; month 9): 99.89% | Content ([8]; month 12): 101.0% | Crystal form ([8]; month 12): form B | Moisture ([8]; month 12): 0.2% | Purity ([8]; month 12): 99.89%
